Laboratory results taken from the supplement of paper PMC10307832.

Assays:
Test in all cases: relative viability (nuclei count vs DMSO), 5 days (fraction); higher = more cells survive
[1] = compound: C/C(=N\NC(=S)N1CCC1)/C2=CC=CC=N2 + O=C(c1cc(Cc2n[nH]c(=O)c3ccccc23)ccc1F)N1CCN(C(=O)C2CC2)CC1 [Olaparib] (partner 8 µM)
How it was run: (§1)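 After 5 days of treatment, lung cancer cells in 1536-well plates were fixed and stained in a single step (final 0.05% Triton X-100, 1% formaldehyde, 1 ug/ml Hoechst) and their nuclei counted on 4× images. Treatment had been applied by pin tool the day after seeding as one drug alone or as a fixed anchor-drug dose with five library-drug doses (not always all listed) in √10 steps. Relative viability is the nuclei count of treated wells divided by that of vehicle wells, and values are medians of duplicate plates.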

[2] = compound: C/C(=N\NC(=S)N1CCC1)/C2=CC=CC=N2 + CC(C)C[C@H](NC(=O)[C@H](Cc1ccccc1)NC(=O)c1cnccn1)B(O)O [Bortezomib] (partner 0.002 µM)
How it was run: as §1

[3] = compound: C/C(=N\NC(=S)N1CCC1)/C2=CC=CC=N2 + Nc1nc2[nH]cc(CCc3ccc(C(=O)N[C@@H](CCC(=O)O)C(=O)O)cc3)c2c(=O)[nH]1 [Pemetrexed] (partner 0.2 µM)
How it was run: as §1

[4] = compound: C/C(=N\NC(=S)N1CCC1)/C2=CC=CC=N2 + Cc1nc(NC(=O)N2CCC[C@H]2C(N)=O)sc1-c1ccnc(C(C)(C)C(F)(F)F)c1 [Alpelisib] (partner 2 µM)
How it was run: as §1

Row | Cell Line | relative viability ([1]; first compound 0.05 µM) | relative viability ([1]; first compound 0.1581 µM) | relative viability ([1]; first compound 0.5 µM) | relative viability ([1]; first compound 1.581 µM) | relative viability ([1]; first compound 5 µM) | relative viability ([2]; first compound 0.05 µM) | relative viability ([2]; first compound 0.1581 µM) | relative viability ([2]; first compound 0.5 µM) | relative viability ([2]; first compound 1.581 µM) | relative viability ([2]; first compound 5 µM) | relative viability ([3]; first compound 0.05 µM) | relative viability ([3]; first compound 0.1581 µM) | relative viability ([3]; first compound 0.5 µM) | relative viability ([3]; first compound 1.581 µM) | relative viability ([3]; first compound 5 µM) | relative viability ([4]; first compound 0.05 µM) | relative viability ([4]; first compound 0.1581 µM) | relative viability ([4]; first compound 0.5 µM) | relative viability ([4]; first compound 1.581 µM) | relative viability ([4]; first compound 5 µM)
1 | HCC-78 | 0.523 | 0.379 | 0.32 | 0.249 | 0.211 | 0.509 | 0.257 | 0.178 | 0.153 | 0.232 | 0.96 | 0.872 | 0.854 | 0.84 | 0.863 | 0.257 | 0.252 | 0.177 | 0.153 | 0.158
2 | HCC-366 | 0.119 | 0.0248 | 0.0175 | 0.0198 | 0.0219 | 0.0281 | 0.0189 | 0.0149 | 0.0223 | 0.02 | 0.0318 | 0.0443 | 0.0286 | 0.0295 | 0.0319 | 0.0241 | 0.013 | 0.0152 | 0.0166 | 0.0137
3 | HCC-827 | 0.333 | 0.227 | 0.203 | 0.145 | 0.175 | 0.497 | 0.497 | 0.325 | 0.274 | 0.282 | 0.224 | 0.225 | 0.259 | 0.152 | 0.171 | 0.556 | 1.01 | 0.264 | 0.279 | 0.186
4 | HOP-62 | 0.079 | 0.0776 | 0.0561 | 0.0753 | 0.0802 | 0.067 | 0.0599 | 0.0594 | 0.0602 | 0.0491 | 0.0662 | 0.0706 | 0.0806 | 0.128 | 0.0892 | 0.105 | 0.895 | 0.0809 | 0.0743 | 0.0607
5 | IA-LM | 0.115 | 0.107 | 0.101 | 0.0716 | 0.0719 | 0.0596 | 0.0778 | 0.0529 | 0.0604 | 0.0675 |  |  |  |  |  | 0.0645 | 0.0816 | 0.0594 | 0.0596 | 0.0781
6 | LC-2-ad | 0.234 | 0.21 | 0.199 | 0.196 | 0.2 | 0.115 | 0.106 | 0.114 | 0.104 | 0.0851 | 0.202 | 0.218 | 0.217 | 0.217 | 0.192 | 0.126 | 0.109 | 0.107 | 0.104 | 0.0953
7 | LK-2 | 0.076 | 0.14 | 0.104 | 0.0854 | 0.0916 |  |  |  |  |  | 0.0705 | 0.123 | 0.0631 | 0.1 | 0.0756 | 0.182 | 0.28 | 0.283 | 0.176 | 0.243
8 | NCI-H358 | 0.0853 | 0.0833 | 0.0714 | 0.0722 | 0.067 |  |  |  |  |  | 0.114 | 0.107 | 0.109 | 0.0963 | 0.12 | 0.196 | 0.174 | 0.142 | 0.118 | 0.155
9 | NCI-H522 | 0.291 | 0.335 | 0.303 | 0.311 | 0.329 |  |  |  |  |  | 0.243 | 0.299 | 0.284 | 0.352 | 0.364 |  |  |  |  | 
10 | NCI-H727 | 0.437 | 0.273 | 0.295 | 0.347 | 0.4 | 0.171 | 0.214 | 0.156 | 0.174 | 0.184 |  |  |  |  |  | 0.191 | 0.152 | 0.19 | 0.175 | 0.147
11 | NCI-H1299 | 0.111 | 0.144 | 0.183 | 0.167 | 0.15 | 0.111 | 0.155 | 0.206 | 0.209 | 0.138 |  |  |  |  |  | 0.094 | 0.195 | 0.213 | 0.213 | 0.15
12 | NCI-H1395 | 0.321 | 0.285 | 0.373 | 0.364 | 0.39 |  |  |  |  |  | 0.313 | 0.402 | 0.322 | 0.32 | 0.348 | 0.4 | 0.354 | 0.423 | 0.354 | 0.463
13 | NCI-H1563 |  |  |  |  |  | 0.664 | 0.701 | 0.611 | 0.574 | 0.553 | 0.525 | 0.571 | 0.505 | 0.41 | 0.47 | 0.528 | 0.493 | 0.492 | 0.573 | 0.596
14 | NCI-H1648 | 0.624 | 0.794 | 0.294 | 0.278 | 0.226 |  |  |  |  |  | 0.258 | 0.323 | 0.329 | 0.274 | 0.311 |  |  |  |  | 
15 | NCI-H1650 | 0.13 | 0.158 | 0.125 | 0.166 | 0.152 | 0.177 | 0.2 | 0.182 | 0.188 | 0.168 | 0.308 | 0.186 | 0.202 | 0.221 | 0.203 |  |  |  |  | 
16 | NCI-H1703 | 0.0864 | 0.132 | 0.103 | 0.0868 | 0.158 | 0.0746 | 0.0958 | 0.166 | 0.134 | 0.171 |  |  |  |  |  | 0.0878 | 0.0975 | 0.132 | 0.112 | 0.122
17 | NCI-H1793 | 0.255 | 0.143 | 0.169 | 0.123 | 0.107 |  |  |  |  |  | 0.158 | 0.162 | 0.151 | 0.112 | 0.136 | 0.245 | 0.179 | 0.169 | 0.168 | 0.191
18 | NCI-H1944 | 0.27 | 0.426 | 0.14 | 0.136 | 0.138 |  |  |  |  |  | 0.212 | 0.15 | 0.133 | 0.112 | 0.124 | 0.669 | 0.794 | 0.307 | 0.191 | 0.133
19 | NCI-H2170 | 0.487 | 0.575 | 0.161 | 0.124 | 0.124 |  |  |  |  |  | 0.235 | 0.208 | 0.202 | 0.155 | 0.116 | 0.747 | 0.731 | 0.177 | 0.173 | 0.17
20 | NCI-H2342 | 0.276 | 0.281 | 0.192 | 0.206 | 0.259 |  |  |  |  |  | 0.262 | 0.288 | 0.277 | 0.259 | 0.251 |  |  |  |  | 
21 | SK-MES-1 | 0.198 | 0.213 | 0.162 | 0.174 | 0.164 |  |  |  |  |  | 0.248 | 0.258 | 0.23 | 0.177 | 0.207 | 0.203 | 0.205 | 0.188 | 0.165 | 0.183
